Activity calls are given as the source filed them. The calls are words filed in the database; no cut-off is given here.

Experimental findings from ChEMBL document CHEMBL1154348, “Arginine-pyrimidine conjugates with therapeutic and prophylactic activity in lethal bacterial infections” (Bioorg Med Chem Lett, 2009) are described below.

The nature of series [1]: Therapeutic efficacy against Staphylococcus aureus infected lethal mouse sepsis model assessed as survival at 30 mg/kg, ip administered 0.5 hrs and 4 hrs post infection. The class given is organism-based. Further details: dose 30 mg/kg, route intraperitoneal. To be noted: in vivo.
A short description of series [2]: Therapeutic efficacy against Escherichia coli infected lethal mouse sepsis model assessed as survival at 30 mg/kg, ip administered 0.5 hrs and 4 hrs post infection. Further details: dose 30 mg/kg, route intraperitoneal. To be noted: in vivo. The class given is organism-based.
The subject of series [3] is Escherichia coli. The series is described as follows: Antibacterial activity against Escherichia coli infected lethal mouse sepsis model assessed as reduction in bacterial load in mouse blood at 50 mg/kg, ip administered as single dose 0.5 hrs post infection measured after 5 hrs. The class given is functional. To be noted: route intraperitoneal.
The subject of series [4] is Escherichia coli. As to the kind of experiment: Antibacterial activity against Escherichia coli infected lethal mouse sepsis model assessed as reduction in bacterial load in mouse blood at 50 mg/kg, ip administered 0.5 hrs and 4 hrs post infection measured after 5 hrs. The conditions noted are these: route intraperitoneal. The class given is functional.
Series [5] deals with Pseudomonas aeruginosa. The series is described as follows: Antibacterial activity against Pseudomonas aeruginosa infected in cyclophosphamide-treated immunocompromized mouse assessed as inhibition of wound infection. The format is functional, organism-based.
Series [6] concerns Streptococcus pyogenes. The series is described as follows: Antibacterial activity against Streptococcus pyogenes infected in cyclophosphamide-treated immunocompromized mouse assessed as inhibition of muscle infection. The conditions noted are these: Muscle tissue. The class given is functional, organism-based.
For series [7], the system named is Escherichia coli. The series is described as follows: Prophylactic efficacy against Escherichia coli infected lethal mouse sepsis model assessed as survival at 50 mg/kg, ip administered 3 hrs before infection. The format is functional. The conditions noted are these: route intraperitoneal.
The subject of series [8] is Escherichia coli. The series is described as follows: Prophylactic efficacy against Escherichia coli infected lethal mouse sepsis model assessed as survival at 50 mg/kg, ip administered 2 hrs before infection. The conditions noted are these: route intraperitoneal. The class given is functional.
For series [9], the system named is Escherichia coli. As to the kind of experiment: Prophylactic efficacy against Escherichia coli infected lethal mouse sepsis model assessed as survival at 50 mg/kg, ip administered 1 hr before infection. To be noted: route intraperitoneal. The class given is functional.
For series [10], the system named is Escherichia coli. The series is described as follows: Prophylactic efficacy against Escherichia coli infected lethal mouse sepsis model assessed as survival at 50 mg/kg, ip administered 0.5 hrs before infection. The format is functional. To be noted: route intraperitoneal.
For series [11], the system named is Mus musculus. The series is described as follows: Acute toxicity in mouse up to 450 mg/kg, ip after 5 days. The format is organism-based. Further details: dose 450 mg/kg, route intraperitoneal. To be noted: in vivo, 120 h.
The subject of series [12] is Plasma. The series is described as follows: Stability in mouse plasma after 3 hrs. The format is ADME, cell-free.
Series [13] in a line: Half life in mouse at 100 mg/kg, ip after 30 mins. The class given is ADME, organism-based. Further details: dose 100 mg/kg, route intraperitoneal. To be noted: in vivo.
A short description of series [14]: Cmax in mouse at 100 mg/kg, ip after 30 mins. The format is ADME, organism-based. Further details: dose 100 mg/kg, route intraperitoneal. The conditions noted are these: in vivo.
The test system of series [15] is Mus musculus. The series is described as follows: Subchronic toxicity in mouse up to 450 mg/kg, ip after 5 days. The format is organism-based. Further details: dose 450 mg/kg, route intraperitoneal. To be noted: in vivo, 120 h.
Series [16] relates to Escherichia coli. As to the kind of experiment: Antibacterial activity against Escherichia coli. The format is functional.
In series [17] the test system is Staphylococcus aureus. The series is described as follows: Antibacterial activity against Staphylococcus aureus. The format is functional.

In the case of `CN(CCCN(C)c1ncccn1)C(=O)[C@@H](N)CCCNC(=N)N`, the Efficacy came to 60% in series [1]; 80% in [2]; 40% in series [7]; 60% in [8]; 80% in series [9]; 80% in series [10]. Further, the figures for the CFU in series [3] and in [4] were 2.7 ×10³ /ml and 3.7 ×10² /ml, respectively. Further, the result in series [5] and in series [6] was inactive. Moreover, the Activity entry in [11] and in series [15] was “Non-toxic” throughout. The Stability entry in series [12] was “Stable”. The half-life in series [13] is 1 h. Besides, the maximum concentration (Cmax) in [14] amounted to 56 µg/mL. In addition, the minimal inhibitory concentration (MIC) in series [16] and in [17] was over 250 µg/mL throughout.

Consider `CN(CCCNC(=O)[C@@H](N)CCCNC(=N)N)c1ncccn1`, for which the Efficacy in series [1] and in series [2] was 40% throughout.

For the molecule `O=C(O)c1cn(C2CC2)c2cc(N3CCNCC3)c(F)cc2c1=O` [CIPROFLOXACIN], the Efficacy in series [1] is reported as 40%; in [2] it was 60%.

In general, half-life refers to the time in which the quantity being followed falls by half. As a reminder, the Cmax is the highest concentration seen after dosing. One may read the MIC as the lowest concentration found to suppress growth. High values mean weaker potency, low ones greater potency.
